The values that follow are results of earlier work, collected in paper PMC9663925, “Phase I pharmacokinetic study of an oral, small-molecule MEK inhibitor tunlametinib in patients with advanced NRAS mutant melanoma” (Frontiers in Pharmacology, 2022).

The Tmax is the time at which the peak concentration occurs.

Like-named read-outs stand apart in the source and are kept apart here.

Turning to `CC(=O)Nc1cccc(-n2c(=O)n(C3CC3)c(=O)c3c(Nc4ccc(I)cc4F)n(C)c(=O)c(C)c32)c1` [trametinib], under “ref Infante et al., 2012”, the Tmax is 1.0 to 2.08 h.
On to `Cn1cnc2c(F)c(Nc3ccc(Br)cc3Cl)c(C(=O)NOCCO)cc21` [selumetinib], for which the Tmax (ref Adjei et al., 2008) is 1.0 to 3 h.
Turning to `Cn1cnc2c(F)c(Nc3ccc(Br)cc3F)c(C(=O)NOCCO)cc21` [binimetinib], where the note is “ref Bendell et al., 2017”, the Tmax was 1.00 to 3.00 h.
As for `O=C(c1ccc(F)c(F)c1Nc1ccc(I)cc1F)N1CC(O)([C@@H]2CCCCN2)C1` [cobimetinib], the Tmax (ref Rosen et al., 2016) was 2.4 to 3 h.
